Patent publication US20230203043A1, “NOVEL IMIDAZOPYRAZINE DERIVATIVES” (Hoffmann-La Roche Inc., priority 2020, published 2023)
Where a name gives a salt, the structure may show the parent alone.

System: Acinetobacter baumannii ATCC17961
Assay: Antimicrobial susceptibility testing: 90% growth inhibitory concentration (IC90) determination in Iso-Sensitest broth, OD600 growth
Type: cell-based
Conditions: Acinetobacter baumannii, ATCC17961, 16 h, read-out: A. baumannii ATCC 17961 IC90 (uM), strain ATCC 17961, OD600 growth over 16 h
Summary of the method: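 Each strain, at about 5×10^(5) CFU/ml, was incubated with twofold dilutions of compound at 35±2° C for 16 h, and IC90 was calculated from kinetic optical density measured at 600 nm during logarithmic growth.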

SMILES	IC90 [µM]
CCc1cc(Nc2nccn3c(-c4cn(CC#N)nc4C(F)(F)F)cnc23)ccc1C(=O)NCC(=O)NC1CC(N)C1 (centres unmarked) [Example 675, N-[2-[(3-aminocyclobutyl)amino]-2-oxo-ethyl]-4-[[3-[1-(cyanomethyl)-3-(trifluoromethyl)pyrazol-4-yl]imidazo[1,2-a]pyrazin-8-yl]amino]-2-ethyl-benzamide formate]	0.315
CCc1cc(Nc2nccn3c(-c4c[nH]nc4C(F)(F)F)cnc23)ccc1C(=O)NCCCNC(=O)[C@@H](C)N [Example 677, (R)-N-(3-(2-aminopropanamido)propyl)-2-ethyl-4-((3-(3-(trifluoromethyl)-1H-pyrazol-4-yl)imidazo [1,2-a]pyrazin-8-yl)amino)benzamide formate]	0.317
CCc1cc(Nc2nccn3c(-c4cn(CC#N)nc4C(F)(F)F)cnc23)ccc1C(=O)N[C@H](C)C(=O)N1CCNCC1 [Example 678, 4-[[3-[1-(cyanomethyl)-3-(trifluoromethyl)pyrazol-4-yl]imidazo[1,2-a]pyrazin-8-yl]amino]-2-ethyl-N-[(1R)-1-methyl-2-oxo-2-piperazin-1-yl-ethyl]benzamide formate]	0.321
CCc1cc(Nc2nccn3c(-c4cn(CC#N)nc4C(F)(F)F)cnc23)ccc1C(=O)NCC(=O)N1CC[C@H](N)C1 [Example 681, N-[2-[(3S)-3-aminopyrrolidin-1-yl]-2-oxo-ethyl]-4-[[3-[1-(cyanomethyl)-3-(trifluoromethyl)pyrazol-4-yl]imidazo[1,2-a]pyrazin-8-yl]amino]-2-ethyl-benzamide formate]	0.327
Cc1cc(Nc2nccn3c(-c4cn(CC#N)nc4C(F)(F)F)cnc23)cc(F)c1C(=O)N1CCN(C(=O)[C@H](C)N)CC1 [Example 682, 2-(4-(8-((4-(4-(L-alanyl)piperazine-1-carbonyl)-3-fluoro-5-methylphenyl)amino)imidazo[1,2-a]pyrazin-3-yl)-3-(trifluoromethyl)-1H-pyrazol-1-yl) acetonitrile formate]	0.329
C[C@@H](NC(=O)c1ccc(Nc2nccn3c(-c4cn(CC#N)nc4C(F)(F)F)cnc23)cc1Cl)C(=O)NC1CC(N)C1 (stereo partly drawn) [Example 683, N-[(1R)-2-[(3-aminocyclobutyl)amino]-1-methyl-2-oxo-ethyl]-2-chloro-4-[[3-[1-(cyanomethyl)-3-(trifluoromethyl)pyrazol-4-yl]imidazo[1,2-a]pyrazin-8-yl]amino]benzamide formate]	0.336
Cc1cc(Nc2nccn3c(-c4cn(CC#N)nc4C(F)(F)F)cnc23)cc(F)c1C(=O)N[C@H](C)CNC(=O)CN [Example 689, (R)-N-(1-(2-aminoacetamido)propan-2-yl)-4-((3-(1-(cyanomethyl)-3-(trifluoromethyl)-1H-pyrazol-4-yl)imidazo[1,2-a]pyrazin-8-yl)amino)-2-fluoro-6-methylbenzamide formate]	0.351

Same assay, conditions: Acinetobacter baumannii, ATCC17961, 16 h, strain ATCC 17961, OD600 growth over 16 h, read-out: A. baumannii ATCC 17961 IC90

SMILES	IC90 [µM]
Cc1cc(Nc2nccn3c(-c4cn(CC(F)F)nc4C(F)(F)F)cnc23)cc(F)c1C(=O)N[C@H](C)CNC(=O)CN [Example 673, (R)-N-(1-(2-aminoacetamido)propan-2-yl)-4-((3-(1-(2,2-difluoroethyl)-3-(trifluoromethyl)-1H-pyrazol-4-yl)imidazo[1,2-a]pyrazin-8-yl)amino)-2-fluoro-6-methylbenzamide]	0.314
C[C@@H](NC(=O)c1ccc(Nc2nccn3c(-c4cn(CC#N)nc4C(F)(F)F)cnc23)cc1Cl)C(=O)N1CC[C@@H](N)C1 [Example 674, N-[(1R)-2-[(3R)-3-aminopyrrolidin-1-yl]-1-methyl-2-oxo-ethyl]-2-chloro-4-[[3-[1-(cyanomethyl)-3-(trifluoromethyl)pyrazol-4-yl]imidazo[1,2-a]pyrazin-8-yl]amino] benzamide formate]	0.315
Cc1cc(Nc2nccn3c(-c4cn(CC#N)nc4C(F)(F)F)cnc23)cc(F)c1C(=O)N1CCN(C(=O)[C@H]2[C@@H]3CNC[C@@H]32)CC1 [Example 676, 2-(4-(8-((4-(4-((1R,5S,6r)-3-azabicyclo[3.1.0]hexane-6-carbonyl)piperazine-1-carbonyl)-3-fluoro-5-methylphenyl)amino)imidazo[1,2-a]pyrazin-3-yl)-3-(trifluoromethyl)-1H-pyrazol-1-yl) acetonitrile formate]	0.316
CCc1cc(Nc2nccn3c(-c4cn(CC(F)F)nc4C(F)(F)F)cnc23)ccc1C(=O)NCC(=O)N1CCNCC1 [Example 679, 4-[[3-[1-(2,2-difluoroethyl)-3-(trifluoromethyl)pyrazol-4-yl]imidazo[1,2-a]pyrazin-8-yl]amino]-2-ethyl-N-(2-oxo-2-piperazin-1-yl-ethyl) benzamide formate]	0.322
C=CCn1cc(-c2cnc3c(Nc4cc(C)c(C(=O)N[C@H](C)CN)c(F)c4)nccn23)c(C(F)(F)F)n1 [Example 680, (R)-4-((3-(1-allyl-3-(trifluoromethyl)-1H-pyrazol-4-yl)imidazo[1,2-a]pyrazin-8-yl)amino)-N-(1-aminopropan-2-yl)-2-fluoro-6-methylbenzamide]	0.326
CCc1cc(Nc2nccn3c(-c4cn(CC(F)F)nc4C(F)(F)F)cnc23)ccc1C(=O)N[C@H](C)CNC(=O)[C@@H]1C[C@@H](O)CN1 [Example 684, (2S,4R)-N-((R)-2-(4-((3-(1-(2,2-difluoroethyl)-3-(trifluoromethyl)-1H-pyrazol-4-yl)imidazo[1,2-a]pyrazin-8-yl)amino)-2-ethylbenzamido)propyl)-4-hydroxypyrrolidine-2-carboxamide]	0.34
CCc1cc(Nc2nccn3c(-c4cn(CC#N)nc4C(F)(F)F)cnc23)ccc1C(=O)NCCCNC(=O)N1CC[C@@H](N)C1 [Example 685, (R)-3-amino-N-(3-(4-((3-(1-(cyanomethyl)-3-(trifluoromethyl)-1H-pyrazol-4-yl)imidazo[1,2-a]pyrazin-8-yl)amino)-2-ethylbenzamido)propyl) pyrrolidine-1-carboxamide formate]	0.34
Cc1cc(Nc2nccn3c(-c4cn(CC#N)nc4C(F)(F)F)cnc23)ccc1C(=O)NCC(=O)N1CC[C@@H](N)C1 [Example 686, N-[2-[(3R)-3-aminopyrrolidin-1-yl]-2-oxo-ethyl]-4-[[3-[1-(cyanomethyl)-3-(trifluoromethyl)pyrazol-4-yl]imidazo[1,2-a]pyrazin-8-yl]amino]-2-methyl-benzamide]	0.343
CCc1cc(Nc2nccn3c(-c4cn(CC(F)F)nc4C(F)(F)F)cnc23)ccc1C(=O)NCC(=O)N1CC[C@@H](N)C1 [Example 687, N-[2-[(3R)-3-aminopyrrolidin-1-yl]-2-oxo-ethyl]-4-[[3-[1-(2,2-difluoroethyl)-3-(trifluoromethyl)pyrazol-4-yl]imidazo[1,2-a]pyrazin-8-yl]amino]-2-ethyl-benzamideformate]	0.345
O=C(c1ccc(Nc2nccn3c(-c4c[nH]nc4C(F)(F)F)cnc23)cc1Cl)N1CC2(C1)CN(C(=O)[C@@H]1CCCN1)C2 [Example 688, (S)-(2-chloro-4-((3-(3-(trifluoromethyl)-1H-pyrazol-4-yl)imidazo[1,2-a]pyrazin-8-yl)amino)phenyl)(6-prolyl-2,6-diazaspiro[3.3]heptan-2-yl)methanone]	0.349
